Data published in the NIST ThermoML archive (doi:10.1016/j.jct.2006.07.017).

Experiment: xn = mol fraction of the nth substance listed
Details: 101 kPa, Liquid

Cc1ccccc1C [1,2-dimethylbenzene] + CN(C)C=O
Details	mass density [kg/m3]
293.15 K, x1 = 0.0555	943.56
293.15 K, x1 = 0.1111	938.71
293.15 K, x1 = 0.1754	933.3
293.15 K, x1 = 0.2352	928.47
293.15 K, x1 = 0.2952	923.8
293.15 K, x1 = 0.3562	919.23
293.15 K, x1 = 0.4251	914.29
293.15 K, x1 = 0.4865	910.06
293.15 K, x1 = 0.5484	905.95
293.15 K, x1 = 0.612	901.89
293.15 K, x1 = 0.6785	897.8
293.15 K, x1 = 0.7325	894.58
293.15 K, x1 = 0.7954	890.96
293.15 K, x1 = 0.8654	887.04
293.15 K, x1 = 0.9325	883.4
303.15 K, x1 = 0.0652	933.58
303.15 K, x1 = 0.1251	928.39
303.15 K, x1 = 0.1854	923.37
303.15 K, x1 = 0.2462	918.5
303.15 K, x1 = 0.3125	913.42
303.15 K, x1 = 0.3785	908.59
303.15 K, x1 = 0.4358	904.56
303.15 K, x1 = 0.4962	900.47
303.15 K, x1 = 0.5521	896.83
303.15 K, x1 = 0.6125	893.04
303.15 K, x1 = 0.6784	889.05
303.15 K, x1 = 0.7451	885.17
303.15 K, x1 = 0.8012	882.01
303.15 K, x1 = 0.8658	878.48
303.15 K, x1 = 0.9485	874.12
313.15 K, x1 = 0.0441	926.11
313.15 K, x1 = 0.1025	920.99
313.15 K, x1 = 0.1762	914.82
313.15 K, x1 = 0.2341	910.18
313.15 K, x1 = 0.2951	905.51
313.15 K, x1 = 0.3756	899.63
313.15 K, x1 = 0.4415	895.06
313.15 K, x1 = 0.5012	891.08
313.15 K, x1 = 0.5685	886.8
313.15 K, x1 = 0.6215	883.55
313.15 K, x1 = 0.6865	879.72
313.15 K, x1 = 0.7451	876.39
313.15 K, x1 = 0.8021	873.25
313.15 K, x1 = 0.8654	869.88
313.15 K, x1 = 0.9448	865.79
323.15 K, x1 = 0.0485	916.16
323.15 K, x1 = 0.1124	910.62
323.15 K, x1 = 0.1852	904.61
323.15 K, x1 = 0.2521	899.35
323.15 K, x1 = 0.3251	893.91
323.15 K, x1 = 0.3952	888.96
323.15 K, x1 = 0.4658	884.2
323.15 K, x1 = 0.5315	879.99
323.15 K, x1 = 0.5952	876.08
323.15 K, x1 = 0.6584	872.37
323.15 K, x1 = 0.7251	868.61
323.15 K, x1 = 0.7952	864.81
323.15 K, x1 = 0.8456	862.18
323.15 K, x1 = 0.9012	859.35
323.15 K, x1 = 0.9599	856.45
333.15 K, x1 = 0.0521	906.08
333.15 K, x1 = 0.1245	899.89
333.15 K, x1 = 0.1895	894.6
333.15 K, x1 = 0.2451	890.29
333.15 K, x1 = 0.3021	886.06
333.15 K, x1 = 0.3685	881.35
333.15 K, x1 = 0.4214	877.76
333.15 K, x1 = 0.4912	873.24
333.15 K, x1 = 0.5584	869.09
333.15 K, x1 = 0.6121	865.92
333.15 K, x1 = 0.6725	862.48
333.15 K, x1 = 0.7315	859.26
333.15 K, x1 = 0.7943	855.95
333.15 K, x1 = 0.8651	852.38
333.15 K, x1 = 0.9432	848.58
343.15 K, x1 = 0.0625	895.2
343.15 K, x1 = 0.1325	889.33
343.15 K, x1 = 0.1952	884.33
343.15 K, x1 = 0.2658	878.99
343.15 K, x1 = 0.3321	874.24
343.15 K, x1 = 0.3965	869.86
343.15 K, x1 = 0.4652	865.41
343.15 K, x1 = 0.5325	861.27
343.15 K, x1 = 0.5912	857.83
343.15 K, x1 = 0.6524	854.4
343.15 K, x1 = 0.7125	851.16
343.15 K, x1 = 0.7895	847.19
343.15 K, x1 = 0.8462	844.4
343.15 K, x1 = 0.9012	841.76
343.15 K, x1 = 0.9577	839.14
353.15 K, x1 = 0.0715	884.27
353.15 K, x1 = 0.1252	879.83
353.15 K, x1 = 0.1858	875.05
353.15 K, x1 = 0.2521	870.08
353.15 K, x1 = 0.3215	865.16
353.15 K, x1 = 0.3865	860.79
353.15 K, x1 = 0.4251	858.31
353.15 K, x1 = 0.4851	854.59
353.15 K, x1 = 0.5584	850.27
353.15 K, x1 = 0.6221	846.71
353.15 K, x1 = 0.6825	843.48
353.15 K, x1 = 0.7551	839.78
353.15 K, x1 = 0.8154	836.84
353.15 K, x1 = 0.8851	833.58
353.15 K, x1 = 0.9411	831.05

Cc1cccc(C)c1 [1,3-dimethylbenzene] + CN(C)C=O
Details	mass density [kg/m3]
293.15 K, x1 = 0.0541	942.31
293.15 K, x1 = 0.1151	935.54
293.15 K, x1 = 0.1752	929.18
293.15 K, x1 = 0.2332	923.31
293.15 K, x1 = 0.3021	916.67
293.15 K, x1 = 0.3661	910.82
293.15 K, x1 = 0.4341	904.88
293.15 K, x1 = 0.4984	899.53
293.15 K, x1 = 0.5624	894.44
293.15 K, x1 = 0.6165	890.3
293.15 K, x1 = 0.6751	885.98
293.15 K, x1 = 0.7315	881.96
293.15 K, x1 = 0.8085	876.67
293.15 K, x1 = 0.8758	872.21
293.15 K, x1 = 0.9425	867.93
303.15 K, x1 = 0.0625	932.16
303.15 K, x1 = 0.1251	925.21
303.15 K, x1 = 0.1852	918.87
303.15 K, x1 = 0.2515	912.21
303.15 K, x1 = 0.3251	905.23
303.15 K, x1 = 0.3895	899.45
303.15 K, x1 = 0.4517	894.13
303.15 K, x1 = 0.5214	888.45
303.15 K, x1 = 0.5865	883.4
303.15 K, x1 = 0.6485	878.8
303.15 K, x1 = 0.7125	874.25
303.15 K, x1 = 0.7885	869.05
303.15 K, x1 = 0.8458	865.29
303.15 K, x1 = 0.9012	861.75
303.15 K, x1 = 0.9666	857.68
313.15 K, x1 = 0.0569	923.43
313.15 K, x1 = 0.1125	917.21
313.15 K, x1 = 0.1812	909.9
313.15 K, x1 = 0.2554	902.46
313.15 K, x1 = 0.3251	895.89
313.15 K, x1 = 0.4023	889.03
313.15 K, x1 = 0.4785	882.65
313.15 K, x1 = 0.5445	877.43
313.15 K, x1 = 0.6054	872.82
313.15 K, x1 = 0.6695	868.19
313.15 K, x1 = 0.7254	864.3
313.15 K, x1 = 0.7812	860.56
313.15 K, x1 = 0.8452	856.41
313.15 K, x1 = 0.9032	852.77
313.15 K, x1 = 0.9577	849.43
323.15 K, x1 = 0.0482	914.86
323.15 K, x1 = 0.1065	908.29
323.15 K, x1 = 0.1684	901.67
323.15 K, x1 = 0.2341	895.02
323.15 K, x1 = 0.3051	888.24
323.15 K, x1 = 0.3659	882.75
323.15 K, x1 = 0.4252	877.65
323.15 K, x1 = 0.4932	872.11
323.15 K, x1 = 0.5641	866.62
323.15 K, x1 = 0.6247	862.17
323.15 K, x1 = 0.6951	857.22
323.15 K, x1 = 0.7554	853.17
323.15 K, x1 = 0.8251	848.68
323.15 K, x1 = 0.8812	845.18
323.15 K, x1 = 0.9572	840.6
333.15 K, x1 = 0.0547	904.33
333.15 K, x1 = 0.1122	897.9
333.15 K, x1 = 0.1815	890.59
333.15 K, x1 = 0.2551	883.29
333.15 K, x1 = 0.3151	877.68
333.15 K, x1 = 0.3821	871.76
333.15 K, x1 = 0.4554	865.64
333.15 K, x1 = 0.5054	861.68
333.15 K, x1 = 0.5625	857.35
333.15 K, x1 = 0.6262	852.72
333.15 K, x1 = 0.6785	849.09
333.15 K, x1 = 0.7412	844.91
333.15 K, x1 = 0.8054	840.8
333.15 K, x1 = 0.8714	836.74
333.15 K, x1 = 0.9548	831.81
343.15 K, x1 = 0.0625	893.44
343.15 K, x1 = 0.1214	886.95
343.15 K, x1 = 0.1851	880.31
343.15 K, x1 = 0.2451	874.4
343.15 K, x1 = 0.3121	868.17
343.15 K, x1 = 0.3852	861.78
343.15 K, x1 = 0.4451	856.83
343.15 K, x1 = 0.5054	852.1
343.15 K, x1 = 0.5641	847.72
343.15 K, x1 = 0.6214	843.62
343.15 K, x1 = 0.6885	839.06
343.15 K, x1 = 0.7451	835.37
343.15 K, x1 = 0.8125	831.16
343.15 K, x1 = 0.8821	827
343.15 K, x1 = 0.9525	822.95
353.15 K, x1 = 0.0521	884.42
353.15 K, x1 = 0.112	877.82
353.15 K, x1 = 0.1785	870.9
353.15 K, x1 = 0.2352	865.33
353.15 K, x1 = 0.2958	859.69
353.15 K, x1 = 0.3562	854.38
353.15 K, x1 = 0.4215	848.95
353.15 K, x1 = 0.4854	843.93
353.15 K, x1 = 0.5412	839.75
353.15 K, x1 = 0.6121	834.72
353.15 K, x1 = 0.6858	829.79
353.15 K, x1 = 0.7551	825.38
353.15 K, x1 = 0.8254	821.12
353.15 K, x1 = 0.8851	817.65
353.15 K, x1 = 0.9512	813.95
